Data published in US10231980B2, “Cortexolone 17alpha-benzoate for use in the treatment of tumours” (COSMO TECHNOLOGIES LTD., priority 2014, dated 2019).
Where two headings read alike, the source gives them in different places.

Legend:
stimulated PBMC = assay: IC50 on stimulated (actively dividing) PBMC; assay type: cell-based, human; details: PBMC Stim; Table IV
7 cancer cell lines = assay: Therapeutic index over a panel of cancer cell lines; assay type: cell-based; details: average over the cancer cell lines of Table VII
Protocol: The compound toxicity was determined as follow:
Therapeutic Index=Safety/Potency=IC50 stimulated PBMC/IC50 cancer cell

HT29 = assay: MTT colorimetric assay on epithelial intestinal cancer cells; assay type: cell-based; details: human, 72 h
Protocol: The experiment was performed to test and define anticancer activity in vitro of Cortexolone 17α-benzoate and cortexolone 17α-valerate, 21-propionate on cell lines representatives of epithelial intestinal tumours, namely HT29. The experiment method consisted in: • 1. Monolayer HT-29 cells were plated in: 96-wells plates at the density of 2×10^4 cells/mL. The cells plated were kept at 37° C. in 5% CO2 and left to attach for 24 h. • 2. […] After 72 h of treatment, the MTT colorimetric assay was performed.

LNCaP = assay: ATP-dependent cell viability assay (Cell Titer Glo), Example 12; details: for IC50: Homo sapiens, LNCaP; for Therapeutic Index = IC50 resting PBMC/IC50 cancer cell / Therapeutic Index = IC50 stimulated PBMC/IC50 cancer cell: human, 3 days
From the text: (§1) Data shown in Table I were fitted through sigmoidal dose response curves and analyzed using Prizm statistical.

PC3 = assay: as above; details: for IC50: Homo sapiens; for Therapeutic Index = IC50 resting PBMC/IC50 cancer cell / Therapeutic Index = IC50 stimulated PBMC/IC50 cancer cell: human
From the text: as §1

Panc1 = assay: as above; details: human, 3 days
From the text: as §1

MiaPaca2 = assay: as above; details: human, 3 days
From the text: as §1

MCF7 = assay: In vitro proliferation / cytotoxic assay on breast cancer cells (Examples 14, 25); details: human, 3 days
Protocol: as §1
For the cytotoxic assay, cells were seeded in 96-well flat bottom culture plates in media containing charcoal stripped serum. After 24 hours, test compounds were added to the cells. DMSO was used as the vehicle negative control and RU486 as the positive control. After 72 hour incubation, cells were harvested and lysed to determine cell viability using the Cell Titer Glow assay.

[1] = read-out: In vitro proliferation IC50
[2] = PC-3, 72 h, PC3, Tables I and II, titrated 3 uM to 200 uM, 3 days
[3] = PC-3, read-out: In vitro proliferation IC50, PC3, Table IV

| SMILES | Therapeutic Index = IC50 resting PBMC/IC50 cancer cell (stimulated PBMC) | Therapeutic Index = IC50 stimulated PBMC/IC50 cancer cell, AVERAGE (7 cancer cell lines) | Therapeutic Index = IC50 resting PBMC/IC50 cancer cell (HT29) | Therapeutic Index = IC50 stimulated PBMC/IC50 cancer cell (HT29) | IC50 (LNCaP; 72 h) [µM] | IC50 (LNCaP; [1]) [µM] | Therapeutic Index = IC50 resting PBMC/IC50 cancer cell (LNCaP) | Therapeutic Index = IC50 stimulated PBMC/IC50 cancer cell (LNCaP) | IC50 (PC3; [2]) [µM] | IC50 (PC3; [3]) [µM] | Therapeutic Index = IC50 resting PBMC/IC50 cancer cell (PC3; 3 days) | Therapeutic Index = IC50 stimulated PBMC/IC50 cancer cell (PC3; 3 days) | Therapeutic Index = IC50 resting PBMC/IC50 cancer cell (Panc1) | Therapeutic Index = IC50 stimulated PBMC/IC50 cancer cell (Panc1) | Therapeutic Index = IC50 resting PBMC/IC50 cancer cell (MiaPaca2) | Therapeutic Index = IC50 stimulated PBMC/IC50 cancer cell (MiaPaca2) | Therapeutic Index = IC50 resting PBMC/IC50 cancer cell (MCF7) | Therapeutic Index = IC50 stimulated PBMC/IC50 cancer cell (MCF7) |
| --- | --- | --- | --- | --- | --- | --- | --- | --- | --- | --- | --- | --- | --- | --- | --- | --- | --- | --- |
| CCCC(=O)OC1(C(=O)CO)CCC2C3CCC4=CC(=O)CC[C@]4(C)C3=CC[C@@]21C (single isomer, unassigned) [CB-03-04] | 1 | 4 | 7 | 7 | 46 | 46 | 8 | 8 | 135 | 140 | 3 | 3 | 1 | 1 | 2 | 2 | 4 | 4 |
| CCC(=O)O[C@]1(C(=O)CO)CC[C@H]2[C@@H]3CCC4=CC(=O)CC[C@]4(C)[C@H]3CC[C@@]21C [CB-03-01, cortexolone 17α-propionate] | 1 | 0 | – | – | 33 | 33 | 0 | 0 | 190 | 190 | 0 | 0 | 0 | 0 | 0 | 0 | 0 | 0 |
